The test system of this assay is isolated mitochondria. The assay can be described thus: 31P ssNMR of mitochondrial membrane integrity under calcium stress. Also noted: species or system S. cerevisiae. On the procedure: Figure 7. SS peptide effects on Ca^2+-membrane interactions and mitochondrial cation stress. A, profiles of surface potential decay (top) and ion distribution (bottom) based on GCS theory in the presence or absence of SS-31 (see supporting Results H for model description). B, effect of SS peptides on Ca^2+ accumulation at model membrane interfaces. Time course measurements of CG-5N emission were performed in solutions with LUVs (20 mol % TOCL in host POPC background, [lipid]^eff = 100 μM) prebound with SS peptide at the indicated concentration followed by titration of CaCl2 in increments of 1 nmol at 20-s intervals starting at t = 60 s. C and D, effect of SS peptides on mitochondrial Ca^2+ uptake. […] Spectral deconvolution yielded the indicated components (see Fig. S19, A and B), which were used to quantify the area ratios of L2/iso in F (values shown are means ± S.D. (error bars) (n = 3). G, respirometry analysis. Mitochondria (1 mg ml^−1) were treated in the absence or presence of SS-31 (54.4 μM) or CaCl2 (1 mM) as indicated and measured for state 2 respiration (n = 10–12 each).
Finally, we measured the effects of SS peptides on mitochondrial calcium stress that may occur independently of Ca^2+ uptake into the matrix. […] To corroborate these findings, we measured mitochondrial oxygen consumption rates under similar conditions of SS peptide treatment and calcium stress. […]

Where a SMILES comes first, the peptide text is derived from it. [ ]: non-standard residue; d: D form. Dmt = Cc1cc(O)cc(C)c1C[C@H](N)C(=O)O

For `Cc1cc(O)cc(C)c1C[C@H](NC(=O)[C@H](N)CCCNC(=N)N)C(=O)N[C@@H](CCCCN)C(=O)N[C@@H](Cc1ccccc1)C(N)=O` [SS-31, D-Arg-2′6′-dimethyl-Tyr-Lys-Phe-NH2] (H-[dR][Dmt]KF-NH2), the “effect on NMR-detected membrane degradation caused by high calcium load” value (acute treatment 8.5 nmol of peptide/mg of mitochondrial protein (0.6 mM, 70 mg ml^−1), up to 5 mM CaCl2, 4 °C) is given as “reduced NMR-detected membrane degradation”. Also, under “spectral deconvolution, 5 mM CaCl2, n = 3”, the “effect on L2 peak (lamellar phospholipid bilayers), L2/iso area ratio” value is reported as “significant preservation of the L2 peak”.

Source of the values: publication PMC7247319, “The mitochondria-targeted peptide SS-31 binds lipid bilayers and modulates surface electrostatics as a key component of its mechanism of action” (The Journal of Biological Chemistry, 2020).
